≈ marks a conversion by molar mass, not a printed value. Where two headings read alike, the source gives them in different places.
Columns and labels:
Experiment in all cases: agar serial dilution test, minimum inhibitory concentration
Type in all cases: cell-based
Staphylococcus aureus = settings: for MIC: Staphylococcus aureus
From the text: (§1) The compounds of this invention are useful for the treatment of bacterial infections amenable to treatment by cephalosporins. […] In accordance with the results obtained with the antibacterial compounds of this invention, their usefulness is established in the fields of comparative pharmacology and microbiology for the purpose of inhibiting the growth of undesirable bacterial colonies. […]

bacillus subtilis = settings: BA SU strain 6633; for MIC: Bacillus subtilis
From the text: as §1

klebsiella pneumoniae = test system: klebsiella pneumoniae
From the text: as §1

proteus vulgaris = test system: proteus vulgaris
From the text: as §1

salmonella paratyphi = settings: Salmonella enterica, read-out: Minimum Inhibitory Concentration
From the text: as §1

escherichia coli = test system: escherichia coli
From the text: as §1

neisseria catarrhalis = test system: neisseria catarrhalis
From the text: as §1

bordetella brochiseptica = settings: BO BR strain 4617
From the text: as §1

[1] = KL PN strain 10031, read-out: Minimum Inhibitory Concentration
[2] = read-out: Minimum Inhibitory Concentration
[3] = NE CA strain 8193, read-out: Minimum Inhibitory Concentration
[4] = PR VU strain 6896, read-out: Minimum Inhibitory Concentration

Row | SMILES | MIC (Staphylococcus aureus; ST AU strain 6538P) | MIC (Staphylococcus aureus; ST AU strain CHP) | MIC (Staphylococcus aureus; ST AU strain Smith) | MIC (bacillus subtilis) | MIC (klebsiella pneumoniae; [1]) | MIC (proteus vulgaris; [2]) | MIC (salmonella paratyphi) | MIC (Staphylococcus aureus; ST AU strain 53-180) | MIC (escherichia coli; ES CO strain 9637) | MIC (neisseria catarrhalis; [3]) | MIC (proteus vulgaris; [4]) | MIC (bordetella brochiseptica) | MIC (escherichia coli; ES CO strain 920) | MIC (klebsiella pneumoniae; [2]) | Minimum Inhibitory Concentration (Staphylococcus aureus; ST AU strain 6538P) | Minimum Inhibitory Concentration (Staphylococcus aureus; ST AU strain Smith) | Minimum Inhibitory Concentration (bacillus subtilis) | MIC (neisseria catarrhalis; [2])
1 | CC(=O)OCC1=C(C(=O)O)N2C(=O)[C@@H](NC(=O)CSC(=NC#N)SCC(=O)O)[C@H]2SC1 [Example 15, 7-[2-[(cyanoimino)(2-hydroxy-2-oxoethylthio)methylthio]acetamido]cephalosporanic acid] | 15.6 µg/mL (≈ 31.9 µM) | 62.5 µg/mL (≈ 128 µM) | 7.81 µg/mL (≈ 16 µM) | 1.95 µg/mL (≈ 3.99 µM) | 250 µg/mL (≈ 512 µM) | 125 µg/mL (≈ 256 µM) | 125 µg/mL (≈ 256 µM) |  |  |  |  |  |  |  |  |  |  | 
2 | COC(=O)CSC(SCC(=O)N[C@@H]1C(=O)N2C(C(=O)O)=C(COC(C)=O)CS[C@H]12)=C(C#N)C(N)=O [Example 3, 7-(2-[2-Carbamoyl-1-(methoxycarbonylmethylthio)-2-cyanoethenylthio]acetamido) cephalosporanic acid] | 0.488 µg/mL (≈ 0.896 µM) | 3.9 µg/mL (≈ 7.16 µM) | 0.488 µg/mL (≈ 0.896 µM) | 0.122 µg/mL (≈ 0.224 µM) | 125 µg/mL (≈ 230 µM) |  | 31.3 µg/mL (≈ 57.5 µM) | 1.95 µg/mL (≈ 3.58 µM) | 62.5 µg/mL (≈ 115 µM) | 7.81 µg/mL (≈ 14.3 µM) | 62.5 µg/mL (≈ 115 µM) |  |  |  |  |  |  | 
3 | C=CCSC(=NC#N)SCC(=O)N[C@@H]1C(=O)N2C(C(=O)O)=C(COC(C)=O)CS[C@H]12 [Example 19, 7-[2-[(cyanoimino)(2-propenylthio)methylthio]acetamido]cephalosporanic acid] | 1.95 µg/mL (≈ 4.14 µM) | 7.81 µg/mL (≈ 16.6 µM) | 1.95 µg/mL (≈ 4.14 µM) | 0.488 µg/mL (≈ 1.04 µM) | 125 µg/mL (≈ 266 µM) | 31.3 µg/mL (≈ 66.5 µM) | 31.3 µg/mL (≈ 66.5 µM) | 3.9 µg/mL (≈ 8.29 µM) | 250 µg/mL (≈ 531 µM) | 250 µg/mL (≈ 531 µM) |  | 125 µg/mL (≈ 266 µM) | 250 µg/mL (≈ 531 µM) |  |  |  |  | 
4 | CC(=O)OCC1=C(C(=O)O)N2C(=O)[C@@H](NC(=O)CSC(=C[N+](=O)[O-])SCc3ccccc3)[C@H]2SC1 [Example 9, 7-[2-(1-Benzylthio-2-nitroethenylthio)acetamido]cephalosporanic acid] | 0.122 µg/mL (≈ 0.226 µM) | 0.488 µg/mL (≈ 0.904 µM) | 0.122 µg/mL (≈ 0.226 µM) | 0.031 µg/mL (≈ 0.0574 µM) | 125 µg/mL (≈ 232 µM) |  | 62.5 µg/mL (≈ 116 µM) | 0.488 µg/mL (≈ 0.904 µM) | 250 µg/mL (≈ 463 µM) | 7.81 µg/mL (≈ 14.5 µM) | 125 µg/mL (≈ 232 µM) | 250 µg/mL (≈ 463 µM) |  |  |  |  |  | 
5 | CCOC(=O)CSC(=NC#N)SCC(=O)N[C@@H]1C(=O)N2C(C(=O)O)=C(COC(C)=O)CS[C@H]12 [Example 12, 7-[2-[(cyanoimino)(2-ethoxy-2-oxoethylthio)methylthio]acetamido]cephalosporanic acid] | 0.976 µg/mL (≈ 1.89 µM) | 3.9 µg/mL (≈ 7.55 µM) | 0.488 µg/mL (≈ 0.945 µM) | 0.122 µg/mL (≈ 0.236 µM) |  |  | 31.3 µg/mL (≈ 60.6 µM) | 1.95 µg/mL (≈ 3.77 µM) | 250 µg/mL (≈ 484 µM) | 62.5 µg/mL (≈ 121 µM) | 62.5 µg/mL (≈ 121 µM) | 250 µg/mL (≈ 484 µM) | 250 µg/mL (≈ 484 µM) | 31.3 µg/mL (≈ 60.6 µM) |  |  |  | 
6 | CCOC(=O)CSC(SCC(=O)N[C@@H]1C(=O)N2C(C(=O)O)=C(COC(C)=O)CS[C@H]12)=C(C#N)C(N)=O [Example 4] | 0.488 µg/mL (≈ 0.874 µM) | 3.9 µg/mL (≈ 6.98 µM) | 0.488 µg/mL (≈ 0.874 µM) | 0.061 µg/mL (≈ 0.109 µM) | 125 µg/mL (≈ 224 µM) |  | 62.5 µg/mL (≈ 112 µM) | 1.95 µg/mL (≈ 3.49 µM) | 250 µg/mL (≈ 448 µM) | 3.9 µg/mL (≈ 6.98 µM) | 125 µg/mL (≈ 224 µM) |  |  |  |  |  |  | 
7 | CC(=O)OCC1=C(C(=O)O)N2C(=O)[C@@H](NC(=O)CSC(=NC#N)SCc3cccc(Cl)c3)[C@H]2SC1 [Example 16, 7-[2-[(3-chlorophenylmethylthio) (cyanoimino)methylthio]acetamido]cephalosporanic acid] | 0.976 µg/mL (≈ 1.76 µM) | 1.95 µg/mL (≈ 3.51 µM) | 1.95 µg/mL (≈ 3.51 µM) | 0.122 µg/mL (≈ 0.22 µM) | 125 µg/mL (≈ 225 µM) |  | 31.3 µg/mL (≈ 56.4 µM) | 3.9 µg/mL (≈ 7.03 µM) | 250 µg/mL (≈ 450 µM) | 125 µg/mL (≈ 225 µM) | 125 µg/mL (≈ 225 µM) | 250 µg/mL (≈ 450 µM) | 250 µg/mL (≈ 450 µM) |  |  |  |  | 
8 | CC(=O)OCC1=C(C(=O)O)N2C(=O)[C@@H](NC(=O)CSC(=NC#N)SCc3ccc(Cl)cc3)[C@H]2SC1 [Example 18, 7-[2-[(4-Chlorophenylmethylthio) (cyanoimino)methylthio]acetamido]cephalosporanic acid] | 1.95 µg/mL (≈ 3.51 µM) | 7.81 µg/mL (≈ 14.1 µM) | 1.95 µg/mL (≈ 3.51 µM) | 0.488 µg/mL (≈ 0.879 µM) | 125 µg/mL (≈ 225 µM) |  | 31.3 µg/mL (≈ 56.4 µM) | 3.9 µg/mL (≈ 7.03 µM) | 250 µg/mL (≈ 450 µM) | 250 µg/mL (≈ 450 µM) | 62.5 µg/mL (≈ 113 µM) | 125 µg/mL (≈ 225 µM) | 250 µg/mL (≈ 450 µM) |  |  |  |  | 
9 | CC(=O)OCC1=C(C(=O)O)N2C(=O)C(NC(=O)CSC(SCC#N)=C(C#N)S(C)(=O)=O)C2SC1 (centres unmarked) [Example 11, 7-[2-(2-Cyano-1-cyanomethylthio-2-methylsulfonylethenylthio)acetamido]cephalosporanic acid] |  |  |  |  |  |  |  |  |  |  |  |  |  |  | 250 micrograms per milliliter | 250 micrograms per milliliter | 15.6 micrograms per milliliter | 
10 | CC(=O)OCC1=C(C(=O)O)N2C(=O)[C@@H](NC(=O)CSC(SCC#N)=C(C#N)c3ccccc3)[C@H]2SC1 [Example 8, 7-(2-[2-Cyano-1-(cyanomethylthio)-2-phenylethenylthio]acetamido)cephalosporanic acid] | 0.244 µg/mL (≈ 0.448 µM) | 0.976 µg/mL (≈ 1.79 µM) | 0.244 µg/mL (≈ 0.448 µM) | 0.031 µg/mL (≈ 0.0569 µM) |  |  | 62.5 µg/mL (≈ 115 µM) | 0.976 µg/mL (≈ 1.79 µM) | 25 µg/mL (≈ 45.9 µM) | 3.9 µg/mL (≈ 7.16 µM) | 250 µg/mL (≈ 459 µM) | 250 µg/mL (≈ 459 µM) | 250 µg/mL (≈ 459 µM) | 62.5 µg/mL (≈ 115 µM) |  |  |  | 
11 | CC(=O)OCC1=C(C(=O)O)N2C(=O)[C@@H](NC(=O)CSC(=NC#N)SCc3ccccc3)[C@H]2SC1 [Example 10, 7-[2-[ (cyanoimino) (phenylmethylthio)methylthio]acetamido]cephalosporanic acid] | 0.976 µg/mL (≈ 1.87 µM) | 3.9 µg/mL (≈ 7.49 µM) | 0.976 µg/mL (≈ 1.87 µM) | 0.122 µg/mL (≈ 0.234 µM) | 15.6 µg/mL (≈ 30 µM) |  | 3.9 µg/mL (≈ 7.49 µM) | 1.95 µg/mL (≈ 3.75 µM) | 15.6 µg/mL (≈ 30 µM) | 62.5 µg/mL (≈ 120 µM) | 15.6 µg/mL (≈ 30 µM) | 15.6 µg/mL (≈ 30 µM) | 62.5 µg/mL (≈ 120 µM) |  |  |  |  | 
12 | CCOC(=O)CSC(SCC(=O)N[C@@H]1C(=O)N2C(C(=O)O)=C(COC(C)=O)CS[C@H]12)=C(C#N)C#N [Example 1, 7-(2[2,2-Dicyano-1-(ethoxycarbonylmethylthio)ethenylthio]acetamido)cephalosporanic acid] | 0.976 µg/mL (≈ 1.81 µM) | 7.81 µg/mL (≈ 14.4 µM) | 0.976 µg/mL (≈ 1.81 µM) | 0.244 µg/mL (≈ 0.451 µM) | 250 µg/mL (≈ 462 µM) | 125 µg/mL (≈ 231 µM) | 125 µg/mL (≈ 231 µM) | 3.9 µg/mL (≈ 7.21 µM) | 250 µg/mL (≈ 462 µM) |  |  | 250 µg/mL (≈ 462 µM) |  |  |  |  |  | 125 µg/mL (≈ 231 µM)
13 | CC(=O)OCC1=C(C(=O)O)N2C(=O)[C@@H](NC(=O)CSC(=NC#N)SCc3ccc([N+](=O)[O-])cc3)[C@H]2SC1 [Example 13, 7-[2-[(cyanoimino)(4-nitrophenylmethylthio)methylthio]acetamido]cephalosporanic acid] | 1.95 µg/mL (≈ 3.45 µM) | 3.9 µg/mL (≈ 6.9 µM) | 1.95 µg/mL (≈ 3.45 µM) | 0.488 µg/mL (≈ 0.863 µM) | 250 µg/mL (≈ 442 µM) | 62.5 µg/mL (≈ 110 µM) | 62.5 µg/mL (≈ 110 µM) | 3.9 µg/mL (≈ 6.9 µM) | 250 µg/mL (≈ 442 µM) |  |  | 125 µg/mL (≈ 221 µM) |  |  |  |  |  | 62.5 µg/mL (≈ 110 µM)
14 | C#CCSC(=NC#N)SCC(=O)N[C@@H]1C(=O)N2C(C(=O)O)=C(COC(C)=O)CS[C@H]12 [Example 17, 7-[2-[(cyanoimino) (2-propynylthio)methylthio]acetamido]cephalosporanic acid] | 0.488 µg/mL (≈ 1.04 µM) | 3.9 µg/mL (≈ 8.32 µM) | 0.488 µg/mL (≈ 1.04 µM) | 0.122 µg/mL (≈ 0.26 µM) |  |  | 7.81 µg/mL (≈ 16.7 µM) | 3.9 µg/mL (≈ 8.32 µM) | 31.3 µg/mL (≈ 66.8 µM) | 125 µg/mL (≈ 267 µM) | 62.5 µg/mL (≈ 133 µM) |  | 62.5 µg/mL (≈ 133 µM) | 7.81 µg/mL (≈ 16.7 µM) |  |  |  | 

From US3956291A, “7-Thioacetamido cephalosporanic acid derivatives” (American Home Products Corporation, priority 1974, dated 1976)
